Test in all cases: NCI tumour cell line growth inhibition, 48 h
Assay [1] relates to U251 CNS.
Assay [2] relates to MDA-MB-435.
Assay [3] deals with HL-60(TB) leukemia.
Assay [4] deals with SK-MEL-5 melanoma.
Assay [5] has as its system HT29 colon.
Assay [6] relates to KM12 colon.
For assay [7], the system named is PC-3 prostate.
The test system of assay [8] is RPMI-8226 leukemia.

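Protocol summary: plate cells (96-well), add compound at 5 concentrations, incubate 48 h, interpolate endpoints linearly. GI50 = concentration required for 50% inhibition of growth. TGI is the concentration that stops growth completely.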

On to `CC1=C(/C=C/C(C)=C\C=C\C(C)=C\C(=O)Nc2ccc3c(c2)OCO3)C(C)(C)CCC1`, for which the GI50 in assay [1] was 77.5 µM; in assay [2] it was 16.7 µM; in assay [3], 1.65 µM; in assay [4], 16.2 µM; in assay [5], 11.9 µM; in assay [6], 39.2 µM. Further, the values for the GI50 in assay [7] and in assay [8] were 41.2 µM and 2.93 µM, respectively. Moreover, the TGI in assay [1] was more than 100 µM; in assay [2], more than 100 µM; in assay [3], 18 µM; in assay [4], 68.1 µM; in assay [5], more than 100 µM; in assay [6], more than 100 µM. In addition, the TGI in assay [7] and in assay [8] was more than 100 µM in each case.

For the molecule `CC(C)(C)N1CCC1C(N)=O` (stereo not drawn), the GI50 in assay [1], in assay [2], in assay [3], in assay [4], in assay [5] and in assay [6] was more than 100 µM throughout. Besides, the GI50 in assay [7] and in assay [8] was more than 100 µM in each case. Besides, the TGI in assay [1], in assay [2], in assay [3], in assay [4], in assay [5] and in assay [6] was more than 100 µM each time. The TGI in assay [7] and in assay [8] was more than 100 µM each time.

Consider `CCCCn1c2cc(OCc3cn(-c4ccc(Cl)cc4)nn3)ccc2c2ccnc(C)c21`, for which the GI50 in assay [1] was 5.66 µM; in assay [2] it was 9.47 µM; in assay [3], 5.09 µM; in assay [4], 5.35 µM; in assay [5], 6.25 µM; in assay [6], 10.1 µM. In addition, the GI50 was 7.85 µM in assay [7] and 3.43 µM in assay [8]. Besides, the TGI in assay [1] was 12.6 µM; in assay [2], more than 33.3 µM; in assay [3] it was 12.6 µM; in assay [4], 9.87 µM; in assay [5], more than 33.3 µM; in assay [6], more than 33.3 µM. The results for the TGI in assay [7] and in assay [8] were more than 33.3 µM and 11.9 µM, respectively.

As to `C[C@]12CCC3[C@@H](C[C@@H]4SC(Nc5ccccc5)=N[C@@]45CC(=O)CC[C@]35C)[C@@H]1CCC2=O` (stereo partly drawn), the GI50 in assay [1] was 4.41 µM; in assay [2], 3.48 µM; in assay [4] it was 10.2 µM; in assay [5], 3.9 µM; in assay [6] it was 8.27 µM; in assay [7] it was 5.52 µM. In addition, the GI50 in assay [8] was 2.73 µM. For the same molecule, the TGI in assay [1] is 19.3 µM; in assay [2], more than 100 µM; in assay [4], 26 µM; in assay [5] it was 17.6 µM; in assay [6], 29.3 µM; in assay [7] it was 63.7 µM. In assay [8], the TGI is 7.44 µM.

As for `Cc1ccc2c(c1)nc(C(=O)c1ccco1)c(C(F)(F)F)[n+]2[O-]`, the GI50 was more than 100 µM in assay [1]; more than 100 µM in assay [2]; 51.4 µM in assay [3]; 1.6 µM in assay [4]; more than 100 µM in assay [5]; more than 100 µM in assay [6]. For the same molecule, the GI50 was 50.2 µM in assay [7] and 64.6 µM in assay [8]. The TGI in assay [1] is more than 100 µM; in assay [2], more than 100 µM; in assay [3], more than 100 µM; in assay [4] it was 2.94 µM; in assay [5], more than 100 µM; in assay [6], more than 100 µM. Further, the TGI in assay [7] and in assay [8] was more than 100 µM each time.

On to `CSc1nc2c(c(=O)[nH]1)N=C1c3ccccc3C(=O)C1C(c1ccc(F)cc1)N2` (stereo not drawn), for which the GI50 in assay [1] was 5.43 µM; in assay [2] it was 1.65 µM; in assay [3], 6.54 µM; in assay [4], 6.13 µM; in assay [5], 3.36 µM; in assay [6], 3.77 µM. The GI50 in assay [7] was 7.72 µM; in assay [8], 4.2 µM. In addition, the TGI in assay [1] is 19.3 µM; in assay [2], 8.76 µM; in assay [3] it was more than 100 µM; in assay [4], 66.6 µM; in assay [5], 12.3 µM; in assay [6] it was 15.6 µM. In addition, the TGI in assay [7] is 95.2 µM; in assay [8], more than 100 µM.

Turning to `O=C(O)C(=Cc1ccnc2ccccc12)C(=O)O`, the TGI in assay [1], in assay [3], in assay [4], in assay [5], in assay [6] and in assay [7] was more than 100 µM in each case. Also, the TGI in assay [8] was more than 100 µM.

Take `Cc1ccc(C(CN(C)C)C(=O)c2ccccc2)cc1` (stereo not drawn): the GI50 in assay [1] is 3.4 µM; in assay [2], 2.45 µM; in assay [3], 2.19 µM; in assay [4], 3.67 µM; in assay [5], 3.26 µM; in assay [6], 4 µM. Further, the GI50 is 1.84 µM in assay [7] and 1.12 µM in assay [8]. In addition, the TGI in assay [1] is 12.8 µM; in assay [2], 8.92 µM; in assay [3], 5.24 µM; in assay [4] it was 13.6 µM; in assay [5], 12.5 µM; in assay [6] it was 14.7 µM. Besides, the results for the TGI in assay [7] and in assay [8] were 4.36 µM and 4.28 µM, respectively.

Consider `CCOP(=O)(OCC)C(NC(c1ccccc1)c1ccccc1)c1ccccc1` (stereo not drawn), for which the GI50 in assay [1] is 14.5 µM; in assay [2] it was 1.36 µM; in assay [4], 19 µM; in assay [5] it was 32.2 µM; in assay [6], 18.4 µM; in assay [7], 12 µM. The GI50 in assay [8] was 4.18 µM. Besides, the TGI was 28.5 µM in assay [1]; 8.89 µM in assay [2]; 33.3 µM in assay [4]; more than 100 µM in assay [5]; 34.6 µM in assay [6]; 27.1 µM in assay [7]. This molecule also had a TGI in assay [8] of 22.3 µM.

In the case of `O=C1CCC(Cc2ccc(Cl)cc2Cl)C(=O)N1` (stereo not drawn), the TGI in assay [1], in assay [2], in assay [3], in assay [4], in assay [5] and in assay [7] was more than 100 µM each time. The same molecule registered a TGI in assay [8] of more than 100 µM.

The record behind these values is PubChem BioAssay (NCI).
